Measurements from patent US20050232983A1, “Transdermal patch” (INDEVUS PHARMACEUTICALS, INC., priority 2004, published 2005).

Assay: serum dehydroepiandrosterone sulfate after topical application of the composition
Assay type: in vivo
Conditions: blood sample of recipient after application to skin
Description: Delivery of dehydroepiandrosterone to the recipient's blood stream can be confirmed by analysis of a blood sample taken from the recipient.

## C[C@]12CC[C@H](O)CC1=CC[C@@H]1[C@@H]2CC[C@]2(C)C(=O)CC[C@@H]12 [dehydroepiandrosterone]
  plateau of serum dehydroepiandrosterone sulfate relative to baseline: at least twice baseline levels
  time to increased serum levels of dehydroepiandrosterone sulfate: within twenty-four hours
